Source: patent publication US5674467A, “Meso-tetraphenylporphyrin complex compounds, process for their production and pharmaceutical agents containing the latter” (Institut fur Diagnostikforschung GmbH, priority 1993, dated 1997)

Tests used:
[1] = Relaxivity on relaxometer (minispec pc120; 20 MHz; 40° C.); type: physicochemical; conditions: dist. water, pH 7.4, 20 MHz, 0-1 mmol/l
Method: (§1) Determination of Compatibility and Relaxivity of the Compounds According to the Invention
To determine the relaxivity, the relaxation times of the substances were measured in 4 different concentrations (0-1 mmol/l; dissolved in dist. water; pH 7.4) on a relaxometer (minispec pc120; 20 MHz; 40° C.). The calculation was performed from:
Δ(1/T1,2 -1/T1,2 blank value)/Δconc.=R1,2

[2] = Compatibility in mice after i.v. administration, 7-day observation; conditions: mouse, in vivo, iv, 7 days observation, > if all animals tolerated the dose, < if all died
Method: as §1
The compatibility was examined preliminarily in mice (NMRI, Schering SPF, female, about 25 g). 0.5 mmol/kg of the substance in each case was administered intravenously to a mouse. The animal died, the dose was halved and correspondingly moved, otherwise the corresponding dose was administered to 2 additional mice. The period of observation was 7 days. The compatibility is indicated with > if all animals tolerated the corresponding dose, with < if all died.

lymph node metastasis = assay: MR-imaging of VX-2 tumor-bearing rabbits: lymph node metastasis; type: in vivo, rabbit; conditions: 0.1 mmol/kg i.v.
Source text: (§2) MR-Imaging Experiment of Tumor-bearing (VX-2 Carcinoma) Rabbits
(§3) Siemens magnetom® (1.5 tesla; 64 MHz), T1 -accentuated spin-echo technique: TR : 350 ms, TE : 15 ms. slice orientation: coronary, slice thickness: 3 mm, number of averages: 4 per layer, field of view: 150 mm, matrix: 256^2, 4-6 layers, 1 echo per imaging sequence.
(§4) Hare rabbit, Wulf, female,=4 kg of body weight (KGW) [n=3].
(§5) Carcinoma (VX-2), implanted intramuscularly about 3 weeks before the beginning of the test.
(§6) 0.05 and 0.1 mmol/kg of body weight i.v.

lymph nodes (iliacal) = assay: MR-imaging of VX-2 tumor-bearing rabbits: lymph nodes (iliacal); type: in vivo, rabbit; conditions: 0.1 mmol/kg i.v.
Source text: as §2, §3, §4, §5, §6

VX-2 carcinoma = assay: MR-imaging of VX-2 tumor-bearing rabbits: VX-2 carcinoma; type: in vivo, rabbit; conditions: 0.1 mmol/kg i.v.
Source text: as §2, §3, §4, §5, §6

muscle = assay: MR-imaging of VX-2 tumor-bearing rabbits: muscle; type: in vivo, rabbit; conditions: 0.1 mmol/kg i.v.
Source text: as §2, §3, §4, §5, §6

[3] = system: implanted tumor and lymph nodes; assay: MR-imaging of VX-2 tumor-bearing rabbits: implanted tumor and lymph nodes; type: in vivo, rabbit; conditions: 0.1 mmol/kg i.v.
Source text: as §2, §3, §4, §5, §6

[4] = 0 min p.i. (precontrast set to 1)

O=C(O)COc1cccc(-c2c3nc(c(-c4cccc(OCC(=O)O)c4)c4ccc([nH]4)c(-c4cccc(OCC(=O)O)c4)c4nc(c(-c5cccc(OCC(=O)O)c5)c5ccc2[nH]5)C=C4)C=C3)c1.[Cl-].[Cl-].[Cl-].[Mn+3] [Example 2c, Manganese(III)-{5,10,15,20-tetrakis-[3-(carboxymethoxy)-phenyl]-porphyrin}-chloride]
Relaxivity R1 [1]: 13 I/mmol/s | MTD at 168 h [2]: > 500 µmol/kg

CC(=O)[O-].O=C([O-])c1cccc(-c2c3nc(c(-c4cccc(C(=O)[O-])c4)c4ccc([nH]4)c(-c4cccc(C(=O)[O-])c4)c4nc(c(-c5cccc(C(=O)[O-])c5)c5ccc2[nH]5)C=C4)C=C3)c1.[Mn+3] [Example 4 from EP 0336 879 A1]
Relaxivity R1 [1]: 8.8 I/mmol/s

CC(=O)[O-].CC(=O)[O-].CC(=O)[O-].CCOC(=O)COc1ccc(-c2c3nc(c(-c4ccc(OCC(=O)OCC)c(OCC(=O)OCC)c4)c4ccc([nH]4)c(-c4ccc(OCC(=O)OCC)c(OCC(=O)OCC)c4)c4nc(c(-c5ccc(OCC(=O)OCC)c(OCC(=O)OCC)c5)c5ccc2[nH]5)C=C4)C=C3)cc1OCC(=O)OCC.[Mn+3] [Example 4c, Manganese(III)-{5,10,15,20-tetrakis-[3,4-bis-(ethoxycarbonylmethoxy)-phenyl]-porphyrin}-acetate]
Relaxivity R1 [1]: 11.6 I/mmol/s | MTD at 168 h [2]: ≥ 500 µmol/kg

CC(=O)[O-].COc1ccc(-c2c3nc(c(-c4ccc(OC)c(S(=O)(=O)[O-])c4)c4ccc([nH]4)c(-c4ccc(OC)c(S(=O)(=O)[O-])c4)c4nc(c(-c5ccc(OC)c(S(=O)(=O)[O-])c5)c5ccc2[nH]5)C=C4)C=C3)cc1S(=O)(=O)[O-].[Mn+3].[Na+].[Na+].[Na+].[Na+] [Example 17 from EP 0336 879 A1]
Relaxivity R1 [1]: 9.2 I/mmol/s

Gd-DTPA
Relative signal intensity, lymph node metastasis (lymph node metastasis; [4]): 1.00 | Relative signal intensity, lymph node metastasis (lymph node metastasis; 2 min p.i.): 1.61 | Relative signal intensity, lymph node metastasis (lymph node metastasis; 8 min p.i.): 1.44 | Relative signal intensity, lymph node metastasis (lymph node metastasis; 17 min p.i.): 1.36 | Relative signal intensity, lymph node metastasis (lymph node metastasis; 42 min p.i.): 1.29 | Relative signal intensity, lymph node metastasis (lymph node metastasis; 52 min p.i.): 1.20 | Relative signal intensity, lymph node metastasis (lymph node metastasis; 69 min p.i.): 1.25 | Relative signal intensity, lymph node metastasis (lymph node metastasis; 24 hours p.i.): 0.97 | Relative signal intensity, lymph nodes (iliacal) (lymph nodes (iliacal); [4]): 1.00 | Relative signal intensity, lymph nodes (iliacal) (lymph nodes (iliacal); 2 min p.i.): 1.50 | Relative signal intensity, lymph nodes (iliacal) (lymph nodes (iliacal); 8 min p.i.): 1.32 | Relative signal intensity, lymph nodes (iliacal) (lymph nodes (iliacal); 17 min p.i.): 1.20 | Relative signal intensity, lymph nodes (iliacal) (lymph nodes (iliacal); 42 min p.i.): 1.24 | Relative signal intensity, lymph nodes (iliacal) (lymph nodes (iliacal); 52 min p.i.): 1.17 | Relative signal intensity, lymph nodes (iliacal) (lymph nodes (iliacal); 69 min p.i.): 1.11 | Relative signal intensity, lymph nodes (iliacal) (lymph nodes (iliacal); 24 hours p.i.): 1.14 | Relative signal intensity, VX-2 carcinoma (VX-2 carcinoma; [4]): 1.00 | Relative signal intensity, VX-2 carcinoma (VX-2 carcinoma; 2 min p.i.): 1.50 | Relative signal intensity, VX-2 carcinoma (VX-2 carcinoma; 8 min p.i.): 1.50 | Relative signal intensity, VX-2 carcinoma (VX-2 carcinoma; 17 min p.i.): 1.48 | Relative signal intensity, VX-2 carcinoma (VX-2 carcinoma; 42 min p.i.): 1.47 | Relative signal intensity, VX-2 carcinoma (VX-2 carcinoma; 52 min p.i.): 1.42 | Relative signal intensity, VX-2 carcinoma (VX-2 carcinoma; 69 min p.i.): 1.40 | Relative signal intensity, VX-2 carcinoma (VX-2 carcinoma; 24 hours p.i.): 1.11 | Relative signal intensity, muscle (muscle; [4]): 1.00 | Relative signal intensity, muscle (muscle; 2 min p.i.): 1.20 | Relative signal intensity, muscle (muscle; 8 min p.i.): 1.11 | Relative signal intensity, muscle (muscle; 17 min p.i.): 1.10 | Relative signal intensity, muscle (muscle; 42 min p.i.): 1.07 | Relative signal intensity, muscle (muscle; 52 min p.i.): 1.02 | Relative signal intensity, muscle (muscle; 69 min p.i.): 1.08 | Relative signal intensity, muscle (muscle; 24 hours p.i.): 1.04 | enhancement of tumors or metastases after about 60-90 minutes [3]: almost no enhancement of tumors or metastases was observed any longer | signal rise in implanted tumor and lymph nodes ([3]; lymph nodes on tumor-bearing and tumor-free side (iliacal and popliteal)): only in a brief, small signal rise | time until approximately the starting intensity was reached again ([3]; virtually all examined tissues, within about): 60 to 90 min

Manganese (III){5,10,15,20tetrakis-{[4carboxylic acid(2,3-dihydroxy-1-hydroxymethylpropyl)-amidephenylporphyrinacetate [Example 2 from EP 0336 879 A1]
Relaxivity R1 [1]: 8.6 I/mmol/s
